The test system of assay [1] is CHO cells. Kind of assay: MTT cell viability, CHO. Conditions: CHO cells lack EGFR expression, 3 days. It counts as cell-based, Chinese hamster. The method, then:
(§1) 2 × 10^3 cells were plated per well in a 96 well plate and left to adhere overnight. The following day, drug treatments were started and continued for 3 days. To measure the viability of the remaining cell population, 10% 3-(4,5-dimethylthiazol-2-yl)-2,5-diphenyltetrazolium (MTT) in media was added and incubated for 2 hours and conversion of MTT to formazan at 540 nm using a biotech Synergy LX plate reader.
(§2) A–G Cells were plated in a 96-well plate at 2000 cells per well. […] Cell viability was then measured with an MTT assay, viability of treated cells were compared with the vehicle control. H MDA-MB-468 cells were plated and incubated+/− IPTG for 2 days prior to drug treatment to induce expression of an EGFR-targeted shRNA.
Supplementary Figure 1. A. BT20 triple negative breast cancer cells were treated with SNX1.1, 1.2, or 1.3 for 3 days and their viability was measured via MTT analysis. B. CHO cells were treated with PTD4 or SNX1.3 for 3 days and their viability was measured via MTT analysis.

Assay [2] deals with MCF10A cells. Description: MTT cell viability, MCF10A. It counts as cell-based. As to conditions: immortalized breast epithelial line, 3 days. The method, then:
as §1, §2

Assay [3] concerns T47D cells. As to conditions: previously characterized; no reference given; cited from earlier work.
Assay [4] concerns MDA-MB-231 cells. Conditions: previously characterized; no reference given; cited from earlier work.
In assay [5] the target is EGFR kinase domain protein (EGFRkin), residues 672-998 with N-terminal His-tag (human). Description: MST; His-EGFRkin (50 nM) labelled through the His-tag with RED-tris-NTA 2nd Generation dye; SNX peptides or SNX-BAR protein titrated, 16 1:1 serial dilutions from 20 uM in PBS-T; room temperature; Monolith NT.115 pico.
Assay [6] addresses T1, EGFR kinase domain (residues 672–998) (Homo sapiens, UniProt P00533).
T1 construct: baculovirus insect cell expression system (residues 672–998 with N-terminal His-tag followed by TEV cleavage site); made in house; host or cells: Sf9 insect cells (Bac-to-Bac baculovirus, pFastBacHT)
Description: Microscale thermophoresis (MST) binding to EGFRkin. Conditions: MST, His-EGFRkin 50 nM (RED-tris-NTA dye) titrated with ligand, 16 1:1 serial dilutions from 20 μM, PBS-T, room temperature.
Description: Briefly pFastBacHT plasmid containing the cDNA of EGFR kinase domain with N-terminal His-tag was transformed into DH10Bac E. coli to generate bacmid DNA. P1 virus was generated by transfecting 2.0 mL of sf9 cells at 1.0 million cells/ml density with the purified bacmid DNA (200–3000 ng/μL). The P1 virus was harvested after 5–7 days following transfection. The P1 virus was diluted 100-fold into an sf9 cell culture at a density of 2.0 million cells/ml and cultured for 3 days. Supernatant containing the P2 virus was collected by centrifugation and diluted 40-fold into 1.0 L of sf9 cells at a density of 2.0 million cells/ml. After 2.5–3 days, cell pellets were harvested by centrifugation at 3500 x g at 4 °C for 20 min, and flash frozen in liquid nitrogen prior to storage at −80 °C.
To purify the EGFR kinase domain, Sf9 cell pellets (~10 g) was thawed on ice and homogenized with 2 passages on an EmulsiFlex-C5 (Avestin) in 50 mL of lysis buffer (50 mM Tris pH 7.5, 600 mM NaCl, 1 mM EDTA, 1 mM TCEP, protease inhibitors, DNAase, and 10% Glycerol). The lysate was centrifugated and supernatant was collected and loaded onto a 1.0 mL HisTrap FF column (GE) at a flow rate of 1.0 ml/min. Following loading, the column was washed with 20 column volumes of wash buffer (50 mM Tris pH 7.5, 600 mM NaCl, 20 mM Imidazole, 1 mM TCEP, and 10% Glycerol) and eluted with a linear gradient of elution buffers containing 20 and 300 mM imidazole. Fractions containing the EGFR kinase domain proteins were combined and concentrated to less than 1.0 mL. The concentrated proteins were loaded onto a Superdex 200 10/300 GL column (GE) equilibrated in buffer (20 mM Tris pH 7.5, 100 mM NaCl) for further purification. The purified proteins were concentrated, flash frozen in liquid nitrogen, and stored at −80 °C.
MST experiments were carried out using a Monolith NT.115 pico instrument (NanoTemper Technologies, Munich Germany). […] Kd values were derived from the concentration-dependent changes in normalized fluorescence (Fnorm). Data were analyzed using NanoTemper MO. […]

Entries after “also recorded” stand apart in the source; their conditions may differ.

Take `CNC(=O)CN1CCC(Oc2cc3c(Nc4cccc(Cl)c4F)ncnc3cc2OC)CC1` [Sapitinib]: the results for the “impact on cell viability / growth” value in assay [1] and in assay [2] were “more effective at inhibiting cell growth in immortalized cells than in cancer cells” and “more effective at inhibiting cell growth in immortalized cells than in cancer cells; also recorded: significantly reduces viability of normal cells”, respectively.
Take `C#Cc1cccc(Nc2ncnc3cc(OCCOC)c(OCCOC)cc23)c1` [erlotinib]: the resistance to erlotinib result in assay [3] and in assay [4] was “resistant” throughout.
For “human SNX-BAR protein (SNX1 BAR domain, residues 301-522) (from UniProt Q13596 301-522) (domain or fragment)”, the Kd (commonly the constant that tells how readily two partners part at equilibrium) in assay [5] came to 3000 nM.

B1: BAR domain: human SNX1 BAR domain, residues 301–522, expressed in E. coli (protein)
chain: KMNESDIWFEEKLQEVECEEQRLRKLHAVVETLVNHRKELALNTAQFAKSLAMLGSSEDNTALSRALSQLAEVEEKIEQLHQEQANNDFFLLAELLSDYIRLLAIVRAAFDQRMKTWQRWQDAQATLQKKREAEARLLWANKPDKLQQAKDEILEWESRVTQYERDFERISTVVRKEVIRFEKEKSKDFKNHVIKYLETLLYSQQQLAKYWEAFLPEAKAIS
modifications: left off: MBP, N-terminal, cleaved
notes: human SNX1 BAR domain, residues 301–522, expressed in E. coli
Take B1: the Kd was determined as 3000 nM in assay [6] and 2900 ± 1700 nM in assay [6] (listed as SNX1 Bar).

Values taken from paper PMC9935382, “Sorting nexin-dependent therapeutic targeting of oncogenic epidermal growth factor receptor” (Cancer Gene Therapy, 2022).
